# Assay results taken from ChEMBL document CHEMBL4296183, “CO-ADD screening of NIH NCI Natural Product Set III” (2020).
# Key:
# [1] = tested on: Acinetobacter baumannii; test: microbe, parasite or virus in culture; conditions: ATCC 19606, 18 h, ASSAY_TEST Inhibition of Bacterial Growth, detection method Absorption (OD600), MEDIA CAMHB, plate type 384well, NBS, CORNING #3640
# Description: Antibacterial activity against Acinetobacter baumannii ATCC 19606 (CO-ADD:GN_034); MIC in CAMBH media using NBS plates, by OD600
# [2] = tested on: Candida albicans; test: microbe, parasite or virus in culture; conditions: ATCC 90028, ASSAY_TEST Inhibition of Fungal Growth, detection method Absorption (OD530), plate type 384well, NBS, CORNING #3640
# Description: Antifungal activity against Candida albicans ATCC 90028 (CO-ADD:FG_001); MIC in YNB media using NBS plates, by OD630
# [3] = tested on: Staphylococcus aureus; test: microbe, parasite or virus in culture; conditions: ATCC 43300, 18 h, ASSAY_TEST Inhibition of Bacterial Growth, detection method Absorption (OD600), MEDIA CAMHB, plate type 384well, NBS, CORNING #3640
# Description: Antibacterial activity against Staphylococcus aureus MRSA ATCC 43300 (CO-ADD:GP_020); MIC in CAMBH media, using NBS plates, by OD(600)
# [4] = tested on: Escherichia coli; test: microbe, parasite or virus in culture; conditions: ATCC 25922, 18 h, ASSAY_TEST Inhibition of Bacterial Growth, detection method Absorption (OD600), MEDIA CAMHB, plate type 384well, NBS, CORNING #3640
# Description: Antibacterial activity against Escherichia coli ATCC 25922 (CO-ADD:GN_001); MIC in CAMBH media using NBS plates, by OD(600)
# [5] = tested on: HEK293; test: cells; type: functional; conditions: Homo sapiens, ATCC CRL1573, HEK293; ASSAY_TEST Inhibition of Cell Viability; detection method Resazurin; Fluorescence (ex560/em590); MEDIA DMEM with 10% FBS; plate type 384well; TC; CORNING #3712; time 18 hr
# [6] = tested on: Pseudomonas aeruginosa; test: microbe, parasite or virus in culture; conditions: ATCC 27853, 18 h, ASSAY_TEST Inhibition of Bacterial Growth, detection method Absorption (OD600), MEDIA CAMHB, plate type 384well, NBS, CORNING #3640
# Description: Antibacterial activity against Pseudomonas aeruginosa ATCC 27853 (CO-ADD:GN_042); MIC in CAMBH media using NBS plates, by OD(600)
# [7] = tested on: Klebsiella pneumoniae; test: microbe, parasite or virus in culture; conditions: ATCC 700603, 18 h, ASSAY_TEST Inhibition of Bacterial Growth, detection method Absorption (OD600), MEDIA CAMHB, plate type 384well, NBS, CORNING #3640
# Description: Antibacterial activity against Klebsiella pneumoniae MDR ATCC 70063 (CO-ADD:GN_003); MIC in CAMBH media using NBS plates, by OD(600)
# [8] = tested on: Cryptococcus neoformans
# Description: Antifungal activity against Cryptococcus neoformans H99 ATCC 208821 (CO-ADD:FG_002); MIC in YNB media using NBS plates, by Resazurin OD(600-570)
MIC [1],MIC [2],MIC [3],MIC [4],MIC [6],MIC [7],MIC [8],SMILES,CC50 [5]
> 10 µM,≤ 0.0781 µM,> 10 µM,> 10 µM,> 10 µM,> 10 µM,0.156 µM,CO[C@H]1C[C@@H]2CC[C@@H](C)[C@@](O)(O2)C(=O)C(=O)N2CCCC[C@H]2C(=O)O[C@H]([C@H](C)C[C@@H]2CC[C@@H](O)[C@H](OC)C2)CC(=O)[C@H](C)/C=C(\C)[C@@H](O)[C@@H](OC)C(=O)[C@H](C)C[C@H](C)/C=C/C=C/C=C/1C [SIROLIMUS],> 10 µM
> 10 µM,> 10 µM,> 10 µM,> 10 µM,> 10 µM,> 10 µM,> 10 µM,COc1cc(C)cc2c(-c3c(O)cc(O)c4c3C[C@H](C)N[C@H]4C)cc(-c3cc(-c4c(O)cc(O)c5c4C[C@H](C)N[C@H]5C)c4cc(C)cc(OC)c4c3O)c(O)c12,> 10 µM
> 10 µM,> 10 µM,≤ 0.0781 µM,> 10 µM,> 10 µM,> 10 µM,> 10 µM,C=C(NC(=O)C(=C)NC(=O)c1csc(C2=NC3c4csc(n4)C4NC(=O)c5csc(n5)C(C(C)(O)C(C)O)NC(=O)C5CSC(=N5)/C(=C/C)NC(=O)C(C(C)O)NC(=O)c5csc(n5)C3(CC2)NC(=O)C(C)NC(=O)C(=C)NC(=O)C(=C)NC(=O)C(C(C)C)NC2C=Cc3c(C(C)O)cc(nc3C2O)C(=O)OC4C)n1)C(N)=O (centres undefined),> 10 µM
